From patent US20070232528A1, “Formulation comprising histone deacetylase inhibitors” (priority 2004, published 2007)
Several values for one entry are separate records, joined by “and”; a condition that tells them apart may be missing. Equal values may be shown once. Read-outs that look alike come from different tables or passages of the source.

Legend:
[1] = tested on: PC3 prostate carcinoma cells; test: PC-3 mouse xenograft model; assay type: in vivo
Protocol: 24 athymic Nu/Nu^−/− mice were injected with 1×10^6 PC3 prostate carcinoma cells in 100 μl PBS into the right flank (8 animals per group). Tumors were allowed to grow for 4 days. Animals were treated with PBS (control), 2×200 mg/kg/d or 2×400 mg/kg/d, respectively, from day 5 until day 21. Tumor volumes were measured every 3-4 days.
Mouse Xenograft Model: 24 athymic Nu/Nu^−/− (Harlan) mice were injected with 1×10^6 PC3 prostate carcinoma cells in 100 μl PBS into the right flank (8 animals per group). Tumors were allowed to grow for 4 days. […] Tumor volumes were measured every […].

[2] = tested on: Histone H3 in 293T cells; test: Western blot of 293T cells treated by release-pattern schemes; assay type: cell-based
Protocol: Whole cell extracts were prepared by lysis of cells in RIPA buffer plus protease inhibitors for denaturing SDS gel electrophoresis on a 12% denaturing polyacrylamide gel. Acetylated histones H3 were detected by Western blot analysis using an anti-acetylated H3 antibody (Upstate, #06-942).

[3] = target: T1, HDAC 1 (Homo sapiens, UniProt Q13547); test: in vitro HDAC assay with recombinant HDAC proteins (Fluor de Lys substrate); assay type: biochemical; conditions: recombinant protein purified from High 5 insect cells; read-out: IC50 for HDAC 1 (class I)
T1 construct: made in house; host or cells: High5 insect cells
Excerpt: (§1) IC50 values may be calculated from dose-response curves. […] Biochem J. Aug. 15, 2000;350 Pt 1:199-205.

[4] = tested on: PC-3 cell line; test: SRB proliferation assay, interval treatment; assay type: cell-based; conditions: Homo sapiens, read-out: growth inhibition
Protocol: (§2) SRB proliferation assay: The reduction in cellular biomass was measured by SRB-assay. For this assay cells were seeded in 96 well culture dishes at densities between 3000 and 8000 cells per well. […] Cells were fixed with cold Trichloracetat (TCA) producing a final TCA concentration of 10%. After 1 hour of incubation at 4° C. the cells were washed five times with water and air dried. Fixed cells were stained for 30 minutes with 0.4% (wt/vol) Sulforhodamine B (SRB) dissolved in 1% acetic acid and washed four times with 1% acetic acid to remove unbound dye. After air drying bound dye was solubilized with 10 mM unbuffered Tris base (pH 10.5) for 5 minutes. Optical densities (OD) were read on a Molecular Devices Versa Max tunable microplate reader at 520-550 nm. Four test wells for each dose-response were set in parallel with 12 control wells per cell line. Measurement of the cell population density at time 0 (T0; the time at which the drug was added) was also made from 12 reference wells of cells fixed with TCA just prior to drug addition to the test plates. Background OD of complete medium with 5% FBS fixed and stained as described above was also determined in 12 separate wells. From the unprocessed OD data from each microtiter plate the background OD measurements (i.e. OD of complete medium plus stain and OD of cells at T0) were subtracted thus giving the reduction of cellular biomass of the cells.

[5] = tested on: Colo320DM cell line; test: SRB proliferation assay, interval treatment; assay type: cell-based; conditions: Homo sapiens, COLO 320DM, 1 mM VPA, read-out: growth inhibition
Protocol: as §2

[6] = tested on: Histone H3 and H4; test: Western blot of peripheral blood cells of patients, phase I/II trial; assay type: in vivo, human
Protocol: (§3) Blood samples were taken before and 6 h, 24 h as well as 48 h after treatment start.
(§4) Whole cell extracts were prepared by lysis of cells in RIPA buffer plus protease inhibitors for denaturing SDS gel electrophoresis on a 12% denaturing polyacrylamide gel. Acetylated histones H3 and H4 and marker protein HDAC 2 were detected by Western blot analysis using an anti-acetyl Histone H3 antibody (Upstate, #06-942), an anti-acetyl Histone H4 antibody (clone T25; patent application EP 02.021984.6), and an anti-HDAC 2 antibody (SCBT, SC-7899). As an equal loading control PVDV membranes were stained with Coomassie.

[7] = tested on: HDAC 2; test: as above; assay type: in vivo, human; conditions: patients with serum levels above the therapeutic plasma concentration
Protocol: as §3, §4

[8] = target: HDAC 8 (Homo sapiens); test: biochemical
Excerpt: (§5) in vitro HDAC assay for determination of IC50 values: The determination of histone deacetylase activity in recombinant HDAC proteins derived from expression in High5 insect cells is based on the specific deacetylation of an artificial substrate (Fluor de Lys, Biomol). The substrate turn over may be detected and quantified by fluorometry. By addition of a HDAC inhibitor the hydrolysis of the substrate is constrained resulting in a decreased fluorometric signal. IC50 values may be calculated from dose-response curves. The assay is separated in two steps: in the first step the substrate (Fluor de Lys/Biomol KI-104) is hydrolysed by histone deacetylases. In step two HDAC activity is terminated and the fluorophore is activated by the addition of a developer (Developer/Biomol KI-105). […] 25 μl substrate (1:100 dilution in reaction buffer) per well are added to start the reaction. A negative control without histone deacetylase activity and a positive control without HDAC inhibitor are treated likewise. The reaction is stopped after 15-60 min. by adding 50 μl developer (1:20 dilution in reaction buffer). After another 15 min. incubation time at room temperature the fluorescence signal is stable for 60 min and may be detected by a fluorescence reader (excitation filter: 390 nm, emission filter: 460 nm). […]

[9] = target: HDAC 6 (Homo sapiens, UniProt Q9UBN7); test: biochemical
Excerpt: as §5

[10] = target: T2, HDAC class I (Homo sapiens, UniProt Q13547); test: in vitro HDAC assay, IC50 stated for the enzyme class; assay type: biochemical; conditions: class I enzyme inhibition
T2 construct: made in house; host or cells: High5 insect cells
Excerpt: as §1

T2 sequence (Q13547 whole entry): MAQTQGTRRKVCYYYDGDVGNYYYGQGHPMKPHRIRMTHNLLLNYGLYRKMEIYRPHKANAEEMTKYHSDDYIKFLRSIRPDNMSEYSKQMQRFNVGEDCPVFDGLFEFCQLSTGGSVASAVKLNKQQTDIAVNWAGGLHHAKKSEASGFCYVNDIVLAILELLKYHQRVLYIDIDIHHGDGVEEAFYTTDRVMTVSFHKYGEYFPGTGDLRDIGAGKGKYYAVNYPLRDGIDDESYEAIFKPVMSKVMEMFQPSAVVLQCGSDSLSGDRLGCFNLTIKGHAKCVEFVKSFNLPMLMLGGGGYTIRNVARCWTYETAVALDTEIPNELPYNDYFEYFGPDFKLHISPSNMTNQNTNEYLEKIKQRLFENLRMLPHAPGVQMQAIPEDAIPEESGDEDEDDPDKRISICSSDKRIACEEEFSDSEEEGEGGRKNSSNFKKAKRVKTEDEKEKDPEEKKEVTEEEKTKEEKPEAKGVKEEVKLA
T1 sequence (Q13547 whole entry): as above
Sequence of HDAC 6 (Q9UBN7 whole entry): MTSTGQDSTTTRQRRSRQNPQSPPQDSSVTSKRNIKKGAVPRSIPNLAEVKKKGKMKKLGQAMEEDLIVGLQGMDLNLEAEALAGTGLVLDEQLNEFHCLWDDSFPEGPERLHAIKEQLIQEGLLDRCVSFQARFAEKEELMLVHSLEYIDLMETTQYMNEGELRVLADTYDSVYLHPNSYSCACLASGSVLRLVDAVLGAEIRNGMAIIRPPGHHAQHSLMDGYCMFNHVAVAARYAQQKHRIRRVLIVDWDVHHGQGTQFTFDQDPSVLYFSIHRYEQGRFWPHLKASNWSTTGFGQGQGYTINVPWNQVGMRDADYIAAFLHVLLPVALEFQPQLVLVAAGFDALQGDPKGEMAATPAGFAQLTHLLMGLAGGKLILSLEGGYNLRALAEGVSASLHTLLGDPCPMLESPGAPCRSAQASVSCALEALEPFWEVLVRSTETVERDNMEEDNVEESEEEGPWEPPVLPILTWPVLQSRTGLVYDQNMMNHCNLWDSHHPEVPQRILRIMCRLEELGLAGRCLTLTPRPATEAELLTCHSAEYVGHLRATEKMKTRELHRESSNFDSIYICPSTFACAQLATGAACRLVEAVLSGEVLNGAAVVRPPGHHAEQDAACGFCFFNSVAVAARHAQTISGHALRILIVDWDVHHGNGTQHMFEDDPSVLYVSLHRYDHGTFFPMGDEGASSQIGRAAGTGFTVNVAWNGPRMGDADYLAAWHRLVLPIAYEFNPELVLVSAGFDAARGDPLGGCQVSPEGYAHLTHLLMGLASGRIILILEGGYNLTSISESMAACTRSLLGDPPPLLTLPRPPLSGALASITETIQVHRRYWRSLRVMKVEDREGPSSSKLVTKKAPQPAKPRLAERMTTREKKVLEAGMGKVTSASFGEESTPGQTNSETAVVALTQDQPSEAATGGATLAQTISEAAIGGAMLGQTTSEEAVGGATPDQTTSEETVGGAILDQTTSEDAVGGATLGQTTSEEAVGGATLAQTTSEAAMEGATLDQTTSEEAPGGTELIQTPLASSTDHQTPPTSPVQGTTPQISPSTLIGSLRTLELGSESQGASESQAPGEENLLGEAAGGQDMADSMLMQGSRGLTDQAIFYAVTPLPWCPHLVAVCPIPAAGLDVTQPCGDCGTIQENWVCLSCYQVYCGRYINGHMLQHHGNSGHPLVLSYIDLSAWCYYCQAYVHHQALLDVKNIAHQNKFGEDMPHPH
Sequence of HDAC 8 (Homo sapiens) (Q9UBN7 whole entry): as above

For `CCCC(CCC)C(=O)O` [VPA, 2-propyl-pentanoic acid], the anti-tumoral effect ([1]; 200 mg/kg/d twice daily, day 5 until day 21) was “no anti-tumoral effect”, the “PC-3 tumor volume reduction” value ([1]; 400 mg/kg/d twice daily, day 5 until day 21, compared to PBS control) was greater than 25% and the “degree of histone hyperacetylation” value ([2]; VPA above IC50 for class I HDAC, exposure 6 h, 15 h, 24 h) was “strongly enhanced when the period of exposure is prolonged”. The “degree of histone hyperacetylation induction, "fast release" or "slow release" exposure each on their own compared with bi-phasic PEAC exposure” value ([2]; Western blot) was “less effective”, the IC50 [3] was 200 µM and ~200 µM and the inhibition at 1000 µM ([4]; PC-3, 66 h, PC3, 1 mM VPA, continuous exposure 66 h) was 57%. The inhibition at 1000 µM ([4]; PC-3, PC3, 1 mM VPA, 2×8 hours exposure, 40 h treatment free interval ("8 h d")) was 26%, the inhibition at 1000 µM ([4]; PC-3, PC3, 1 mM VPA, 2×20 hours exposure, 26 h treatment free interval ("20 h d")) was 43% and the inhibition at 1000 µM ([5]; 2×8 hours exposure, 40 h treatment free interval ("8 h d")) was 27%. For the same compound, the inhibition at 1000 µM ([5]; 2×20 hours exposure, 26 h treatment free interval ("20 h d")) was 57%, the inhibition at 1000 µM ([5]; 66 h, continuous exposure 66 h) was 80% and the “correlation of VPA serum peak levels with induction of histone hyperacetylation” value ([6]; peripheral blood cells before and 6 h, 24 h, 48 h after treatment start, intravenous VPA) was “clear correlation”. For the same compound, the “histone H3 and H4 hyperacetylation” value ([6]; peripheral blood cells, patients with serum levels above the therapeutic plasma concentration) was “could be detected”, the “regulation of the marker protein HDAC 2” value [7] was “down regulation” and the IC50 [8] was roughly 1100 µM. For the same compound, the IC50 [9] was 1100 µM and the IC50 [10] was ~200 µM and 200 µM.
